Data on 33 molecules can be found in the METLIN SMRT retention time set (Domingo-Almenara et al. 2019).

A short description of the series: gradient 5% acetonitrile 3 min, to 50% in 2 min, to 85% in 15 min, held 3 min, 100 µL/min. As to conditions: column: Zorbax Extend-C18 2.1 x 50 mm; eluents: water / acetonitrile, 0.1% formic acid. Put shortly:
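Pure standards were run in mixtures of ~100 molecules by HPLC coupled to a quadrupole time-of-flight mass spectrometer. The column was a Zorbax Extend-C18 (2.1 × 50 mm, 1.8 μm) at 100 μL/min, with water and acetonitrile each containing 0.1% formic acid, in positive and negative ionization mode. Dead and dwell volumes were 40 μL and 900 μL. Retention time was taken from computationally picked adduct peaks, each manually inspected, with data collected over 3 months.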
For `CCCCC(=O)N(Cc1ccc(-c2ccccc2-c2nn[nH]n2)cc1)[C@H](C(=O)O)C(C)C`, the RP-LC retention time amounted to 865 s.

The molecule `Cn1nccc1C(=O)N1CCc2cc(-c3csc(C4CC4)n3)ccc21` showed an RP-LC retention time of 990 s.

For the molecule `Ic1ccc(N2CCN(Cc3c[nH]c4ncccc34)CC2)cc1`, the RP-LC retention time came out at 727 s.

`O=C(Nc1ccc(F)cc1)N1CCC(N2CCN(Cc3cccc(F)c3)C(=O)C2=O)CC1` gave an RP-LC retention time of 722 s.

Molecule `CCOC(=O)c1c(Cc2ccc(Cl)cc2)c[nH]c1C` gave an RP-LC retention time of 1010 s.

As to `Cc1cc2oc(C(=O)NCC(c3ccccc3)N(C)C)cc(=O)c2cc1C` (stereo not drawn), the RP-LC retention time worked out at 639 s.

`COc1ccccc1NC(=O)CN1c2ccc(F)cc2-c2ccccc2S1(=O)=O` registered an RP-LC retention time of 1000 s.

In the case of `CCCNC(=O)c1cn(-c2cc(-c3nc(C(C)(C)C)no3)ccn2)cn1`, the RP-LC retention time was found to be 934 s.

The molecule `O=C(Cn1cccc(-c2nc(-c3ccc(F)cc3)no2)c1=O)Nc1cc(F)ccc1F` showed an RP-LC retention time of 915 s.

In turn, `COc1ccc(CCNC(=O)Cn2nc3n(c2=O)CCCC3)cc1OC` returned an RP-LC retention time of 613 s.

For `CCOC(=O)c1c(C)oc2ncnc(NCc3ccccn3)c12`, the RP-LC retention time was 671 s.

In the case of `O=C(COc1ccc(F)cc1)N1CC(n2cnnc2C2CC2)C1`, the RP-LC retention time was 627 s.

Molecule `CCn1nccc1C(=O)Nc1ccc(-c2nnc3n2CCCC3)cc1` had an RP-LC retention time of 1010 s.

`COC(=O)C1=CN(c2cccc(C(F)(F)F)c2)c2ccccc2S1(=O)=O` showed an RP-LC retention time of 900 s.

The molecule `O=C1CCCCC(Cc2ccccc2)(C(=O)NCCc2c[nH]c3ccccc23)N1` (stereo not drawn) showed an RP-LC retention time of 791 s.

`Cc1ccc2c(Nc3ccc(Cl)cc3)c(C(=O)N3CCSCC3)cnc2n1` showed an RP-LC retention time of 634 s.

For `CC1Cc2ccccc2N1C(=O)c1ccc(Cl)cc1` (stereo not drawn), the RP-LC retention time stood at 972 s.

The molecule `COC(=O)c1ccc2c(=O)n(-c3cccc(C)c3)c(N3CCSCC3)nc2c1` had an RP-LC retention time of 1110 s.

The molecule `CCc1csc(-c2ccc(N3CCN(C(=O)c4ccc(F)cc4F)CC3)nc2)n1` had an RP-LC retention time of 890 s.

Turning to `Cc1cc(C)cc(Oc2nccn3c(=O)n(CC(=O)Nc4cc(F)ccc4F)nc23)c1`, the RP-LC retention time is 950 s.

The molecule `COc1cccc(-c2nc(-c3ccc4c(c3)nnn4CCN(C)C)no2)c1` had an RP-LC retention time of 595 s.

Take `Cn1c(=O)n(CC(=O)O)c(=O)c2c1nc1n2CCN1c1ccc(F)cc1`: the RP-LC retention time was 704 s.

Consider `CCNC(=O)c1sc(Nc2ccc(Cl)cn2)nc1C`, for which the RP-LC retention time came out at 726 s.

In turn, `CCn1c(=O)sc2cc(S(=O)(=O)N3CCC(C(=O)NCc4ccccc4Cl)CC3)ccc21` displayed an RP-LC retention time of 905 s.

The molecule `COc1ccc(NS(=O)(=O)c2cc(-c3nnc(C(=O)N4CCCC4)o3)sc2C)c(OC)c1` yielded an RP-LC retention time of 846 s.

As for `O=C(NCCCn1cccn1)c1cccc2[nH]cc(CN3CCSCC3)c12`, the RP-LC retention time came out at 628 s.

Take `O=C(CN1CCc2[nH]c3c(F)ccc(F)c3c(=O)c2C1)Nc1ccccc1Cl`: the RP-LC retention time turned out to be 953 s.

In the case of `COc1ccc(-c2nc(NCCN(Cc3ccco3)C3CCCC3)c3ccccc3n2)cc1`, the RP-LC retention time was 604 s.

In turn, `Cc1ccc(N2CCN(CC(O)COc3cccc(C)c3)CC2)cc1` (stereo not drawn) had an RP-LC retention time of 782 s.

Turning to `COc1ccc(Cl)cc1NC(=O)CSc1nnc2c3cc(-c4ccc(F)cc4)nn3ccn12`, the RP-LC retention time came to 996 s.

Molecule `CCCn1c(CCc2ccccc2NS(=O)(=O)CCC)nc2ccccc21` gave an RP-LC retention time of 708 s.

As to `Cc1ccc(N2CC(c3noc(-c4cccc(C)c4)n3)CC2=O)cc1` (stereo not drawn), the RP-LC retention time is 1090 s.

Molecule `CCNC(=O)C1CCCN(c2nc3ncn(CC(=O)Nc4ccccc4OCC)c(=O)c3s2)C1` (stereo not drawn) had an RP-LC retention time of 700 s.
